Source: patent publication US20240133877A1, “PRODUCTS AND METHODS FOR MONITORING ADHERENCE TO NUCLEOSIDE REVERSE TRANSCRIPTASE INHIBITOR THERAPY” (priority 2017, published 2024)
Several values for one entry are separate records, joined by “and”; a condition that tells them apart may be missing. Equal entries are not always repeated. One block for each compound: values may come before it.

Key:
[1] = system: pAb 313; assay: Cross reactivity of compounds spiked in buffer with pAb 313; type: binding, rabbit; settings: compound spiked in buffer
Method: (§1) To identify which compounds were causing cross reactivity, potentially cross-reactive compounds (compounds with similar chemical structure to TFV) were spiked in buffer and tested with the pAbs. We tested 11 compounds, and their percent cross reactivity was calculated for each of the substances in Table 3 to each antibody.

[2] = system: pAb 312; assay: Cross reactivity of compounds spiked in buffer with pAb 312; type: binding, rabbit; settings: compound spiked in buffer
Method: as §1

[3] = system: anti-TFV monoclonal antibody-HRP conjugates; assay: Whole-blood TFV-DP ELISA with phosphatase; type: binding; settings: for OD Value: replicates
Method: ELISA plates and reagents were equilibrated at room temperature. 50 μL of TFV-DP standard were plated onto a dilution plate in triplicate to generate a standard curve. TFV-DP standards were 250, 100, 50, 25, 10, 5, and 1 ng/mL, along with a blank. 50 μL of whole blood samples were added in duplicate or triplicate.
[…] 25 μL of conjugate solution containing anti-TFV monoclonal antibody-HRP conjugates was added to each well.
The dilution plate was covered and incubated at 25° C. for 30 minutes with shaking at 300-600 rpm. After incubation, the total volume of the dilution plate wells was transferred to an ELISA plate pre-coated with tenofovir-BSA conjugate (TFV-BSA). The ELISA plate was covered and incubated at 25° C. for 30 minutes with shaking at 300-600 rpm. The ELISA plate was washed with 350 μL per well of wash buffer for a total of 6 cycles, with a final aspirate.
100 μL of TMB substrate was added to each well. The ELISA plate was incubated in the dark at 25° C. for 30 minutes. 100 μL of stop solution was added to each well to quench the reactions. Absorbance was measured at 450 (primary) and 630 (reference) nm wavelengths within 15 minutes of quenching the reactions. OD was calculated by subtracting the reference absorbance from the primary absorbance. A standard curve was generated using a 4-parameter logistic regression or a 5-parameter logistic regression. The percent inhibition was calculated using the following formula: […]

[4] = system: anti-TFV antibodies conjugated to colloidal gold; assay: Negative readout lateral flow assay, TFV-DP in PBS; type: binding
Source text: […] Samples were loaded onto negative readout lateral flow assays. Lateral flow assays had anti-TFV antibodies conjugated to colloidal gold at the conjugate pad and TFV derivates striped at the test line. Visual reads were made at 10- and 15-minute time points.

[5] = system: anti-TFV antibodies conjugated to colloidal gold; assay: Negative readout lateral flow assay, TFV-DP in whole blood; type: binding; design: Visual Read Results / Test Line Visual Read Results: scale not given here; settings: for TFV-DP conversion to TFV: phosphatase 30 minutes; for Visual Read Results: WB with phosphatase
Method: […] Samples were diluted by 1:10 or 1:2 and loaded onto negative readout lateral flow assays. Visual reads were made at 10- and 15-minute time points.
Samples were loaded onto negative readout lateral flow assays. Visual reads were made at 10- and 15-minute time points. Results are shown in FIGS. 11A and 11B and Table 10.

[6] = red blood cells and dried blood spots; cited from earlier work
[7] = Urine and plasma TFV levels by LC-MS/MS in participants taking TAF; type: in vivo, human
Method: Blood and urine samples were collected from 3 cohorts of patients: (1) 10 HIV positive participants with suppressed virus on a TAF-based regimen, (2) 10 HIV- participants administered 1 dose of FTC/TAF followed by urine and plasma sampling for 7 days starting 1-3 hours post-dose, and (3) 10 HIV- participants administered 7 daily doses of FTC/TAF followed by urine and plasma sampling for 10 days starting 1-3 hours after the last dose. Samples were analyzed using liquid chromatography-tandem mass spectrometry (LC-MS/MS) with high sensitivity and specificity for TFV. Samples from cohort 2 were compared to a historical cohort administered one dose of FTC/TD F.

[8] = HIV-positive participants on TAF-based regimen (Cohort 1)

SMILES: Nc1nc2c(ncn2[C@@H]2O[C@H](COP(=O)([O-])[O-])[C@@H](O)[C@H]2O)c(=O)[nH]1.[Na+].[Na+] [Guanosine 5′ Monophosphate Disodium]
Cross Reactivity of 313 (vs TFV standard) [1]: None | Cross Reactivity of 312 (vs TFV standard) [2]: None

SMILES: CNc1ncnc2c1ncn2[C@@H]1O[C@H](COP(=O)(O)O)[C@@H](O)[C@H]1O [N6 Methyladenosine 5′ Monophosphate]
Cross Reactivity of 313 (vs TFV standard) [1]: None | Cross Reactivity of 312 (vs TFV standard) [2]: Reactive (0.1%)

SMILES: Nc1ncnc2c1ncn2[C@@H]1O[C@H](CO)[C@@H](OP(=O)(O)O)[C@H]1O [Adenosine 3′ Monophosphate]
Cross Reactivity of 313 (vs TFV standard) [1]: Reactive (0.1%) | Cross Reactivity of 312 (vs TFV standard) [2]: Reactive (0.1%)

SMILES: CNc1ncnc2c1ncn2[C@@H]1O[C@H](CO)[C@@H](O)[C@H]1O [N6 Methyladenosine]
Cross Reactivity of 313 (vs TFV standard) [1]: None | Cross Reactivity of 312 (vs TFV standard) [2]: None

SMILES: Nc1ncnc2c1ncn2[C@@H]1O[C@H](COP(=O)(O)O)[C@@H](O)[C@H]1O.O [Adenosine 5′ Monophosphate Monohydrate]
Cross Reactivity of 313 (vs TFV standard) [1]: None | Cross Reactivity of 312 (vs TFV standard) [2]: None

SMILES: Nc1ccn(C[C@@H](CO)OCP(=O)(O)O)c(=O)n1 [Cidofovir Hydrate]
Cross Reactivity of 313 (vs TFV standard) [1]: Reactive (5%) | Cross Reactivity of 312 (vs TFV standard) [2]: None

SMILES: Nc1ncnc2c1ncn2[C@@H]1O[C@H](COP(=O)([O-])OP(=O)([O-])OP(=O)(O)O)[C@@H](O)[C@H]1O.[Na+].[Na+] [Adenosine 5′ Triphosphate Disodium]
Cross Reactivity of 313 (vs TFV standard) [1]: None | Cross Reactivity of 312 (vs TFV standard) [2]: None

% Inhibition ([3]; No Phosphatase): 33.05% | OD Average ([3]; No Phosphatase): 1.0986 | OD Value ([3]; No Phosphatase): 1.088 and 1.2148 and 1.2340 and 1.1083 | % Inhibition ([3]; Phosphatase): 76.63% | OD Average ([3]; Phosphatase): 0.3835 | OD Value ([3]; Phosphatase): 0.3853 and 0.3923 and 0.3798 and 0.3766 | Visual Read Results (Enzyme Present) ([4]; 325 ng/mL, 10 minutes): 5 | Visual Read Results (No Enzyme Present) ([4]; 325 ng/mL, 10 minutes): 8 | Visual Read Results (Enzyme Present) ([4]; 325 ng/mL, 15 minutes): 5/6 | Visual Read Results (No Enzyme Present) ([4]; 325 ng/mL, 15 minutes): 8 | Visual Read Results (Enzyme Present) ([4]; 1300 ng/mL, 10 minutes): 3 | Visual Read Results (No Enzyme Present) ([4]; 1300 ng/mL, 10 minutes): 7 | Visual Read Results (Enzyme Present) ([4]; 1300 ng/mL, 15 minutes): 3 | Visual Read Results (No Enzyme Present) ([4]; 1300 ng/mL, 15 minutes): 7 | Visual Read Results (Enzyme Present) ([4]; 3250 ng/mL, 10 minutes): 0/1 | Visual Read Results (No Enzyme Present) ([4]; 3250 ng/mL, 10 minutes): 6 | Visual Read Results (Enzyme Present) ([4]; 3250 ng/mL, 15 minutes): 0/1 | Visual Read Results (No Enzyme Present) ([4]; 3250 ng/mL, 15 minutes): 6
SMILES: C[C@H](Cn1cnc2c(N)ncnc21)OCP(=O)(O)OP(=O)(O)OP(=O)(O)O [TFV-DP, tenofovir diphosphate]
TFV-DP conversion to TFV ([4]; phosphatase from sweet potato extract, 30 minutes): Conversion of TFV-DP to TFV was observed | TFV-DP conversion to TFV ([4]; without phosphatase treatment): No conversion of TFV-DP to TFV was observed | TFV-DP conversion to TFV ([5]; WB 975 and 325 ng/mL, diluted 1:10 or 1:2): Conversion of TFV-DP to TFV was observed | TFV-DP conversion to TFV ([5]; WB 975 and 325 ng/mL, no further dilution): Conversion of TFV-DP to TFV was observed | TFV-DP conversion to TFV ([5]; WB 1000-12000 ng/mL, diluted 1:10): Conversion of TFV-DP to TFV was observed | Test Line Visual Read Results ([5]; WB diluted 1:10, 1000 ng/ml, 10 minutes): 7 | Test Line Visual Read Results ([5]; WB diluted 1:10, 1000 ng/ml, 15 minutes): 7 | Test Line Visual Read Results ([5]; WB diluted 1:10, 2000 ng/ml, 10 minutes): 7 | Test Line Visual Read Results ([5]; WB diluted 1:10, 2000 ng/ml, 15 minutes): 7 | Test Line Visual Read Results ([5]; WB diluted 1:10, 3000 ng/ml, 10 minutes): 7 | Test Line Visual Read Results ([5]; WB diluted 1:10, 3000 ng/ml, 15 minutes): 7 | Test Line Visual Read Results ([5]; WB diluted 1:10, 3250 ng/ml, 10 minutes): 7 | Test Line Visual Read Results ([5]; WB diluted 1:10, 3250 ng/ml, 15 minutes): 7 | Test Line Visual Read Results ([5]; WB diluted 1:10, 4000 ng/ml, 10 minutes): 6 | Test Line Visual Read Results ([5]; WB diluted 1:10, 4000 ng/ml, 15 minutes): 6 | Test Line Visual Read Results ([5]; WB diluted 1:10, 5000 ng/ml, 10 minutes): 5 | Test Line Visual Read Results ([5]; WB diluted 1:10, 5000 ng/ml, 15 minutes): 5 | Test Line Visual Read Results ([5]; WB diluted 1:10, 6000 ng/ml, 10 minutes): 5 | Test Line Visual Read Results ([5]; WB diluted 1:10, 6000 ng/ml, 15 minutes): 5 | Test Line Visual Read Results ([5]; WB diluted 1:10, 7000 ng/ml, 10 minutes): 5 | Test Line Visual Read Results ([5]; WB diluted 1:10, 7000 ng/ml, 15 minutes): 5 | Test Line Visual Read Results ([5]; WB diluted 1:10, 8000 ng/ml, 10 minutes): 5 | Test Line Visual Read Results ([5]; WB diluted 1:10, 8000 ng/ml, 15 minutes): 5 | Test Line Visual Read Results ([5]; WB diluted 1:10, 9000 ng/ml, 10 minutes): 4 | Test Line Visual Read Results ([5]; WB diluted 1:10, 9000 ng/ml, 15 minutes): 4 | Test Line Visual Read Results ([5]; WB diluted 1:10, 9750 ng/ml, 10 minutes): 4 | Test Line Visual Read Results ([5]; WB diluted 1:10, 9750 ng/ml, 15 minutes): 4 | Test Line Visual Read Results ([5]; WB diluted 1:10, 10000 ng/ml, 10 minutes): 4 | Test Line Visual Read Results ([5]; WB diluted 1:10, 10000 ng/ml, 15 minutes): 4 | Test Line Visual Read Results ([5]; WB diluted 1:10, 11000 ng/ml, 10 minutes): 4 | Test Line Visual Read Results ([5]; WB diluted 1:10, 11000 ng/ml, 15 minutes): 4 | Test Line Visual Read Results ([5]; WB diluted 1:10, 12000 ng/ml, 10 minutes): 3 | Test Line Visual Read Results ([5]; WB diluted 1:10, 12000 ng/ml, 15 minutes): 3 | Visual Read Results ([5]; diluted 1:10 or 1:2, 325 ng/ml, 10 minutes): 6 | Visual Read Results ([5]; diluted 1:10 or 1:2, 325 ng/ml, 15 minutes): 6 | Visual Read Results ([5]; diluted 1:10 or 1:2, 975 ng/ml, 10 minutes): 4 | Visual Read Results ([5]; diluted 1:10 or 1:2, 975 ng/ml, 15 minutes): 4 | Visual Read Results ([5]; no further dilution (Table 10), 325 ng/ml, 10 minutes): 3/4 | Visual Read Results ([5]; no further dilution (Table 10), 325 ng/ml, 15 minutes): 3/4 | Visual Read Results ([5]; no further dilution (Table 10), 975 ng/ml, 10 minutes): 0 | Visual Read Results ([5]; no further dilution (Table 10), 975 ng/ml, 15 minutes): 0 | accumulation from the first dose to steady state [6]: 25 fold | half-life [6]: 17 days

SMILES: Nc1nc2c(ncn2[C@H]2C[C@H](O)[C@@H](COP(=O)(O)OP(=O)(O)OP(=O)(O)O)O2)c(=O)[nH]1 [2′Deoxyguanosine 5′ Triphosphate]
Cross Reactivity of 313 (vs TFV standard) [1]: None | Cross Reactivity of 312 (vs TFV standard) [2]: None

urine TFV concentration ([7]; 7 consecutive doses FTC/TAF, 1-3 hours after discontinuation of dosing): > 1000 ng/mL | urine TFV level ([7]; 7 consecutive doses FTC/TAF, up to 7 days post discontinuation, in 8 out of 10 participants): > 100 ng/mL | TFV concentration higher in urine than plasma ([7]; HIV-positive participants on TAF-based regimen): 2 logs | plasma TFV concentration [7, 8]: 10 ng/mL | urine TFV concentration [7, 8]: 1000 ng/mL | plasma TFV concentration ([7]; both HIV-negative cohorts (FTC/TAF), all time points): ≤ 10 ng/mL | concentration at 144 h ([7]; human, urine, oral, single dose FTC/TAF, for 6 days, in 8 of 10 participants, read-out: urine TFV concentration remaining): > 100 ng/mL | persistence of TFV in urine at detectable concentrations ([7]; patients taking FTC/TAF): at least 7 days | urine TFV concentrations after FTC/TAF versus historical cohort administered FTC/TDF ([7]; single dose): comparable | urine TFV concentration ([7]; single dose FTC/TAF, HIV- subjects, 1-3 hours post-dose): 100 to 1000 ng/mL
SMILES: C[C@H](Cn1cnc2c(N)ncnc21)OCP(=O)(O)O [TFV, tenofovir]

SMILES: Nc1ncnc2c1ncn2[C@H]1C[C@H](O)[C@@H](COP(=O)(O)OP(=O)(O)OP(=O)(O)O)O1 [2′ Deoxyadenosine 5′ Triphosphate]
Cross Reactivity of 313 (vs TFV standard) [1]: None | Cross Reactivity of 312 (vs TFV standard) [2]: None

SMILES: Nc1ncnc2c1ncn2[C@@H]1O[C@H](CO)[C@@H](O)[C@H]1O [Adenosine]
Cross Reactivity of 313 (vs TFV standard) [1]: Reactive (0.1%) | Cross Reactivity of 312 (vs TFV standard) [2]: None

SMILES: Nc1ncnc2c1ncn2CCOCP(=O)(O)O [Adefovir]
Cross Reactivity of 313 (vs TFV standard) [1]: Reactive (0.1%) | Cross Reactivity of 312 (vs TFV standard) [2]: Reactive (0.1%)
